This is an account of results in patent publication US20110053969A1, “NOVEL DIAZASIPIROAKANES AND THEIR USE FOR TREATMENT OF CCR8 MEDIATED DISEASES” (ASTRAZENECA AB, priority 2005, published 2011).

SMILES strings stand for the structures. Counter-ions that a name gives are not always drawn.

The target of data set [1] is T1, human recombinant chemokine CCR8 receptor (Homo sapiens, UniProt P51685).
T1 construct: purchased Euroscreen ES-136-M; host or cells: CHO-K1 cells (transfected), membrane preparation
The data set can be described thus: CCL1 SPA binding assay. The following applies: inhibition of 125I CCL1 binding to membranes from CHO-K1 cells transfected with human CCR8. How it is done:
Membranes from CHO-K1 cells transfected with human recombinant chemokine CCR8 receptor (ES-136-M) were purchased from Euroscreen. Membrane preparations are stored at −70 C in 7.5 mM Tris-Cl pH 7.5, 12.5 mM MgCl2, 0.3 mM EDTA, 1 mM EGTA, 250 mM sucrose until used.
The CCR8 membranes (50.6 mg/ml) were preincubated with Wheat Germ Agglutinin SPA beads (4.05 mg/ml) in assay buffer (50 mM HEPES, 1 mM CaCl2x2H2O, 5 mM MgCl2x6H2O, 75 mM NaCl, 0.1% BSA) at pH=7.4 for 2 hours on ice. A 10-point dose-response curve (final concentrations 50 μM, 16.7 μM, 5.6 μM, 1.9 μM, 0.62 μM, 0.21 μM, 0.069 μM, 0.023 μM) was prepared by diluting compounds by serial dilution 1:3 in DMSO. In the screening plate (Polystyrene NBS plates, Costar Corning 3604) 1 μl from the DMSO solutions of compounds was transferred into each well. 1 μl of DMSO was added to the blank control wells and 1 μl unlabeled CCL1 (300 nM) was added to background control wells. 50 μl of the SPA bead-membrane mixture was added into each well. Finally, 50 μl. ([…]) ^125I CCL1 (2000 Ci/mM) was added to each well. Plates were then incubated at RT with shaking (700 rpm) for 90 minutes followed by 30 minutes at RT without shaking. The plate was read in a Wallac MicroBeta counter for 2 minutes/well.

Data set [2] can be described thus: Human microsomal stability assay. The following applies: human microsomes (Xenotech), 1 mg microsomal protein/mL, 2.5 μM compound, 2 mM NADPH, pH 7.4, 37° C., read-out: Human Microsomal Stability (intrinsic Clearance, CLint). The data set is classed as in vitro ADME. On the procedure:
Human Microsomal Stability Assay
The assay is run in a 96-deepwell format at 1 mg microsomal protein (Xenotech)/mL in potassium phosphate buffer (pH 7.4) with a compound concentration of 2.5 μM and a NADPH concentration of 2 mM. Samples at four time-points (0, 5, 15 and 30 minutes) are withdrawn and the enzymatic reaction is terminated by protein precipitation with 1% acetic acid in acetonitrile. The incubations are performed on a thermostated plate (37° C.) placed on a Tecan worktable, and all liquid handling was performed robotically. After centrifugation of the samples, the supernatants are pooled in sets of four before they are analysed by liquid chromatography with tandem mass spectrometry detection (LC/MS/MS) using multiple reaction monitoring (MRM). Data are presented as intrinsic Clearance (CLint), μl/min/mg protein, calculated from the initial linear part of the compound disappearance curve.

T1 sequence (P51685 whole entry): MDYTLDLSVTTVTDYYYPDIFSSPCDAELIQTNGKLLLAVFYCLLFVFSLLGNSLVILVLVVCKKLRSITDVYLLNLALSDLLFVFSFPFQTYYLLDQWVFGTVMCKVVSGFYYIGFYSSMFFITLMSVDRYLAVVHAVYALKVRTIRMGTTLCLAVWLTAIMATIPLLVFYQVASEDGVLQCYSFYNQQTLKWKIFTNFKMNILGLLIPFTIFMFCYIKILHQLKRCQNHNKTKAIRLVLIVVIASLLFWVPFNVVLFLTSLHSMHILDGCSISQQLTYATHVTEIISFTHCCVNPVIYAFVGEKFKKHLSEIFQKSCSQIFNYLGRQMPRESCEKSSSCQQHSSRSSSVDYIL

By IC50 is commonly meant the concentration at which inhibition is half-maximal. `CC(C)COc1ccccc1CN1CCC2(CC1)CCN(C(=O)c1ccc[nH]c1=O)CC2` [A, 3-{[9-(2-isobutoxybenzyl)-3,9-diazaspiro[5.5]undec-3-yl]carbonyl}pyridin-2(1H)-one, reference compound]: the IC50 in data set [1] stood at 1950 nM.
The same measure, in the same setting: as for `CC(C)COc1ccccc1CN1CCC2(CC1)CCN(C(=O)c1ccc(=O)[nH]c1)CC2` [B, 5-{[9-(2-isobutoxybenzyl)-3,9-diazaspiro[5.5]undec-3-yl]carbonyl}pyridin-2(1H)-one, reference compound], the figure is 1900 nM.
The microsomal CLint is the capacity of the preparation to metabolise the compound, expressed as a volume cleared per time. In the case of `COc1ccccc1Oc1ccccc1CN1CCC2(CC1)CCN(C(=O)c1ccc[nH]c1=O)CC2` [Example 2, 3-({9-[2-(2-methoxyphenoxy)benzyl]-3,9-diazaspiro[5.5]undec-3-yl}carbonyl)pyridin-2(1H)-one], the microsomal CLint at 2.5 μM in data set [2] was less than 10 µL/min/mg. For the same compound, the IC50 in data set [1] is 62 nM.
For `COc1ccccc1Oc1ccccc1CN1CCC2(CC1)CCN(C(=O)c1ccc(=O)[nH]c1C(F)(F)F)CC2` [Example 3, 5-({9-[2-(2-methoxyphenoxy)benzyl]-3,9-diazaspiro[5.5]undec-3-yl}carbonyl)-6-(trifluoromethyl)pyridin-2(1H)-one trifluoroacetate] the same measures were less than 10 µL/min/mg and 83 nM.
For `COc1ccccc1Oc1cccc(CN2CCC3(CC2)CCN(C(=O)c2ccc[nH]c2=O)CC3)c1` [Example 4, 3-({9-[3-(2-methoxyphenoxy)benzyl]-3,9-diazaspiro[5.5]undec-3-yl}carbonyl)pyridin-2(1H)-one] the same measures were 21.7 µL/min/mg and 15 nM.
